Source: patent US7741020B2, “Methods for detecting Lp-PLA2 activity and inhibition of Lp-PLA2 activity” (Glaxo Group Limited, priority 2004, dated 2010)
Several values for one entry are separate records, joined by “and”; a condition that tells them apart may be missing. Equal values may be shown once.

How the values were obtained:
[1] = molecular target: T1, Lp-PLA2 (Homo sapiens, UniProt Q13093); assay: High throughput radiometric assay for Lp-PLA2 activity (3H-PAF); type: biochemical; settings: 120 mg, plasma of individual human subjects
T1 sequence (Q13093 22-441): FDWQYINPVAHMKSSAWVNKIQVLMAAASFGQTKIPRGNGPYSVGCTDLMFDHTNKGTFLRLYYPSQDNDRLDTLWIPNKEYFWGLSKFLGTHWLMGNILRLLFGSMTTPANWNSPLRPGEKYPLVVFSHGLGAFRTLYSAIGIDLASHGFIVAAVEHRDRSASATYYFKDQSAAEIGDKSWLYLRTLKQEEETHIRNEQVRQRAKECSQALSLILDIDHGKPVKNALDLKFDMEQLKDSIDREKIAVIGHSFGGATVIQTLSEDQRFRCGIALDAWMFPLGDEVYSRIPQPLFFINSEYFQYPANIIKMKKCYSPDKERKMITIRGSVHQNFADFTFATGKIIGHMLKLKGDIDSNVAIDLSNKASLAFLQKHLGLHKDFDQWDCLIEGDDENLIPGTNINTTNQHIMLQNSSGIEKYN
Protocol: (cat #6005162) Reagents • HEPES (4-(2-hydroxyethyl)-1-piperazineethane sulfonic acid) Sigma Chemical Co., St. Louis Mo. […] (Cat # E7889; 0.5 M) • ^3H-Platelet Activating Factor, 1-O-Hexadecyl-[acetyl-^3H(N)], (^3H-PAF)-NEN Life Science Products, Roxbury, Mass. (Cat # NET-910, supplied as an ethanol solution, typically 0.1 mCi/mL; 250 uCi) • C16-PAF, (1-hexadecyl-2-acetyl-sn-glycero-3-phosphocholine): Avanti Polar Lipids, Alabaster, Ala. […] (Cat # T9159) Assay Buffer • 100 mM Hepes, pH 7.4 • 150 mM NaCl • 5 mM EDTA • Store it at room temperature Procedures • 1. Prepare a ^3H-PAF working solution (for 100 reactions): • a) Aliquot 480 μl ^3H-PAF (10 μM=0.1 mCi/ml at 10.0 Ci/mmol) and 125.3 μl of [C16]PAF (5.0 mg/ml; MW: 524) to a tube; • b) Mix and air dry in the hood; • c) Resuspend the dried pellets in 12.0 ml of assay buffer giving working solutions of 100 μM PAF (i.e. ^3H-PAF at 0.4 μM and cold [C16]PAF at 99.6 μM); • 2. Aliquot 5 μL of assay buffer (for Total counts and Blanks; n=8) or plasma samples in duplicates into a 96-well plate; • 3. Equilibrate the plate to 21° C.; • 4. Add 100 μL of the ^3H-PAF solution to each well, mix and incubate the plate at 21° C. for 5 minutes; • 5. […]; • 6. Add 25 μL of ice-cold TCA solution (56%) to each well, mix and incubate the plate in a refrigerator for 15 minutes; • 7. Centrifuge the plate at 6,000 g for 15 minutes at 4° C.; • 8. […] Add 10 μL of ^3H-PAF working solution to 6 Total Counts wells; • 10. […] Cover the plate with a plate tape and vortex mix at max speed for 10 minutes; • 12. […] Count with a TopCount scintillation counter for 2 minutes each; and • 14.

[2] = molecular target: T1, Lp-PLA2; assay: Auto PAF AH assay (Azwell kit, Olympus Au640 analyzer); type: biochemical; settings: plasma of individual human subjects
Protocol: The Auto PAF AH assay kit, manufactured by Azwell (Osaka, Japan), is commercially available in the United States through Karlan Research Products Corporation (Santa Rosa, Calif.).
Prepare the following reagents: • R1: Use this buffer solution as supplied in Azwell Auto PAF AH assay kit. Store at 4° C. Protect from light. • R2: Prepare the R2 working solution by mixing R2A and R2B (supplied in Azwell Auto PAF AH assay kit) in the proportion of 19:1, Store at 4° C. Protect from light. • 3. […] Briefly centrifuge to spin down fibrin clots/particles in the plasma. • 4. Place Sarstedt tubes containing plasma samples onto sample tubes that fit the instrument. Run plasma samples through the Au640 analyzer. After choosing the PAF AH assay program, the analytical procedure described below is performed automatically: • Test sample (2 μL)+R1 (240 μL), 37° C., 5 minutes [0-5 minutes] • Add R2 (80 μL), 37° C., 5 minutes [5-10 minutes] • Measure the absorbance at 410 nm and 480 nm [6-8 minutes] • Calculate PAF AH activity (IU/L) • 5.

Compound: COCCN1CCC(N(Cc2ccc(-c3ccc(C(F)(F)F)cc3)cc2)C(=O)Cn2c(SCc3cccc(F)c3F)cc(=O)c3ccccc32)CC1 [Formula I]
- Lp-PLA2 Activity Radiometric ([1]; 4 hr after dosing): 14.00 nmol/min/mL and 10.00 nmol/min/mL (2×)
- % Inhibition Radiometric ([1]; 5 hr after dosing): 91.73%
- Lp-PLA2 Activity Radiometric ([1]; 5 hr after dosing): 14.05 nmol/min/mL and 11.69 nmol/min/mL and 10.00 nmol/min/mL (2×) and 20.24 nmol/min/mL
- Lp-PLA2 Activity Radiometric ([1]; 6 hr after dosing): 10.00 nmol/min/mL
- Lp-PLA2 Activity Radiometric ([1]; 9 hr after dosing): 21.11 nmol/min/mL and 18.51 nmol/min/mL and 14.41 nmol/min/mL and 32.48 nmol/min/mL and 11.21 nmol/min/mL
- Lp-PLA2 Activity Radiometric ([1]; 12 hr after dosing): 24.22 nmol/min/mL and 21.27 nmol/min/mL and 16.97 nmol/min/mL and 34.26 nmol/min/mL and 15.69 nmol/min/mL
- % Inhibition Auto PAF AH ([2]; 50 mg, 0.5 hr after dosing): 10.84% and 0.65% and −6.65% and 10.66% and 8.03%
- Lp-PLA2 Activity Auto PAF AH ([2]; 50 mg, 0.5 hr after dosing): 456.50 nmol/min/mL and 308.00 nmol/min/mL and 393.00 nmol/min/mL and 272.50 nmol/min/mL and 647.00 nmol/min/mL
- % Inhibition Auto PAF AH ([2]; 50 mg, 1 hr after dosing): 11.15% and 14.00% and 19.04%
- Lp-PLA2 Activity Auto PAF AH ([2]; 50 mg, 1 hr after dosing): 271.00 nmol/min/mL and 605.00 nmol/min/mL and 242.00 nmol/min/mL and 340.50 nmol/min/mL
- % Inhibition Auto PAF AH ([2]; 50 mg, 2 hr after dosing): 10.98% and 20.47% and 9.03%
- Lp-PLA2 Activity Auto PAF AH ([2]; 50 mg, 2 hr after dosing): 271.50 nmol/min/mL and 559.50 nmol/min/mL and 282.00 nmol/min/mL and 348.00 nmol/min/mL
- Lp-PLA2 Activity Auto PAF AH ([2]; 50 mg, 3 hr after dosing): 277.50 nmol/min/mL and 602.50 nmol/min/mL and 435.00 nmol/min/mL and 287.50 nmol/min/mL and 348.00 nmol/min/mL
- % Inhibition Auto PAF AH ([2]; 50 mg, 4 hr after dosing): 15.90% and 10.52% and 0.32% and 8.14%
- Lp-PLA2 Activity Auto PAF AH ([2]; 50 mg, 4 hr after dosing): 256.50 nmol/min/mL and 629.50 nmol/min/mL and 409.00 nmol/min/mL and 309.00 nmol/min/mL and 338.50 nmol/min/mL
- % Inhibition Auto PAF AH ([2]; 50 mg, 5 hr after dosing): 10.33% and 7.39% and 24.80% and 9.84% and 8.68%
- Lp-PLA2 Activity Auto PAF AH ([2]; 50 mg, 5 hr after dosing): 273.50 nmol/min/mL and 651.50 nmol/min/mL and 385.00 nmol/min/mL and 279.50 nmol/min/mL and 336.50 nmol/min/mL
- % Inhibition Auto PAF AH ([2]; 50 mg, 6 hr after dosing): 10.33% and 8.74% and 24.12% and 11.80%
- Lp-PLA2 Activity Auto PAF AH ([2]; 50 mg, 6 hr after dosing): 273.50 nmol/min/mL and 642.00 nmol/min/mL and 388.50 nmol/min/mL and 306.50 nmol/min/mL and 325.00 nmol/min/mL
- % Inhibition Auto PAF AH ([2]; 50 mg, 9 hr after dosing): 6.23% and 18.76% and 12.99% and 6.61% and 15.33%
- % Inhibition Auto PAF AH ([2]; 50 mg, 12 hr after dosing): 14.26% and 18.76% and −8.39%
- Lp-PLA2 Activity Auto PAF AH ([2]; 50 mg, 12 hr after dosing): 261.50 nmol/min/mL and 409.50 nmol/min/mL and 336.00 nmol/min/mL and 307.00 nmol/min/mL
- % Inhibition Auto PAF AH ([2]; 120 mg, 0.5 hr after dosing): 15.42% and 8.74% and 9.58% and 6.66%
- % Inhibition Auto PAF AH ([2]; 120 mg, 1 hr after dosing): 11.34% and 7.73%
- % Inhibition Auto PAF AH ([2]; 120 mg, 2 hr after dosing): 18.04% and 21.33% and 8.63% and 18.61% and 21.05%
- % Inhibition Auto PAF AH ([2]; 120 mg, 3 hr after dosing): 12.42% and 16.24% and 5.90% and 14.65%
- % Inhibition Auto PAF AH ([2]; 120 mg, 5 hr after dosing): −1.63% and 5.62%
- Lp-PLA2 Activity Auto PAF AH ([2]; 120 mg, 5 hr after dosing): 353.50 nmol/min/mL and 748.00 nmol/min/mL and 416.00 nmol/min/mL and 428.50 nmol/min/mL and 377.00 nmol/min/mL
- % Inhibition Auto PAF AH ([2]; 120 mg, 6 hr after dosing): 13.73% and 2.99% and 6.47%
- Lp-PLA2 Activity Auto PAF AH ([2]; 120 mg, 6 hr after dosing): 330.00 nmol/min/mL and 714.00 nmol/min/mL and 412.00 nmol/min/mL and 393.00 nmol/min/mL and 366.00 nmol/min/mL
- % Inhibition Auto PAF AH ([2]; 120 mg, 9 hr after dosing): 11.63%
- % Inhibition Auto PAF AH ([2]; 120 mg, 12 hr after dosing): 7.06% and −3.52%
